Data: publication PMC12538275, “Fat or flat? The impact of dipole moment vectors on non-covalent interactions between aromatic tags and macromolecules” (Inorganic Chemistry Frontiers, 2025)

Key:
[1] = biological target: SmCB1 (Schistosoma mansoni, UniProt Q8MNY2, T185A/T300A); experiment: biochemical; conditions: for Ki SmCB1: kinetic activity assay, triplicate, pH 5.5, 37 °C
Excerpt: (§1) Enzymatic activity was monitored either fluorometrically with peptide–AMC substrates, which release 7-amino-4-methylcoumarin (AMC) as a fluorescent product, or spectrophotometrically with peptide–pNA substrates, which liberate p-nitroaniline (pNA). Reaction rates were obtained from the slopes of the linear progress curves and expressed as relative fluorescence units per second (RFU s^−1) or as absorbance units per second (AU s^−1). […] The standard errors of measurements refer to the non-linear regression analysis.
(§2) A non-glycosylated mutant of the SmCB1 zymogen was expressed in the yeast Pichia pastoris, activated by S. mansoni legumain and purified as described previously.[25,43,58] Kinetic measurements were performed in triplicate in 96-well microplates (100 μL assay volume) at 37 °C. […] Substrate hydrolysis was measured fluorometrically in an Infinite M1000 microplate reader (Tecan) at excitation and emission wavelengths of 360 and 465 nm, respectively. Inhibition assays for human cathepsins and cruzain are described in Supplemental Experimental Procedures.

[2] = biological target: T1, human cathepsin B (Homo sapiens, UniProt P07858); experiment: Cathepsin B inhibition assay with chromogenic substrate Cbz-Arg-Arg-pNA; type: biochemical; conditions: kinetic activity assay; for Ki: read-out: Ki Cat B
T1 construct: purchased Calbiochem
Excerpt: as §1
(§3) Enzymatic Assay Materials
(§4) Human cathepsin B was purchased from Calbiochem, and human cathepsins K, L, and S from Enzo. […]
(§5) Stock solutions of the […]
inhibitors and substrates were prepared in DMSO.
Cathepsin B Inhibition Assay
Kinetic measurements were performed in duplicate in cuvettes (1 mL assay volume) at 37 °C, as described.18-20 Human cathepsin B was activated by a 1:500 dilution with assay buffer (100 mM sodium phosphate, pH 6.0, 100 mM NaCl, 5 mM EDTA, 0.01% Brij 35) containing 5 mM DTT and then incubated at 37 °C for 30 min.
Into a cuvette containing 960 µL assay buffer, 5 µL of the chromogenic substrate Cbz-Arg-Arg-pNA, DMSO and inhibitor solution (15 µL) were pipetted. After addition of cathepsin B (20 µL), substrate hydrolysis was measured spectrophotometrically in a VARIAN/Bio-50/100 photometer at 405 nm for 20 min. […]

[3] = system: newly transformed schistosomula (NTS) of S. mansoni; experiment: Phenotypic assay with newly transformed schistosomula (NTS); type: cell-based, Schistosoma mansoni; conditions: for Severity score: scale 0 (no effect) to 4 (most severe); for anti-schistosomal effect against NTS (in words): 1 and 10 μM, three days
Protocol: Newly transformed schistosomula (NTS) of S. mansoni were prepared by mechanically transforming infective larvae (cercariae) as described previously.[47,57] NTS (200–300 parasites) were incubated in flat-bottomed 96-well plates in 200 μL of Basch medium 169[60] containing 5% FBS (ThermoFisher Scientific), 100 U mL^−1 penicillin and 100 μg mL^−1 streptomycin (ThermoFisher Scientific), at 5% CO2 and 37 °C.[61,62] Inhibitors were added at final concentration of 1 or 10 μM,[43,47] and changes in phenotype were observed every 24 h for up to 72 h. A constrained nomenclature of ‘descriptors’[49,57] is used to record the multiple and dynamic changes in movement, shape and translucence that the schistosome parasite is capable of (Fig. S1). These descriptors are then converted into an ordinal ‘severity score’ system from 0 (no effect) to 4 (maximum effect), which allows for the relative comparison of compound effects, as described previously.[63]

[4] = biological target: T2, human cathepsin K (Homo sapiens, UniProt P43235); experiment: Cathepsin K inhibition assay; type: biochemical; conditions: duplicate measurements; read-out: Ki cat K
T2 construct: purchased Enzo
T2 sequence (P43235 115-329): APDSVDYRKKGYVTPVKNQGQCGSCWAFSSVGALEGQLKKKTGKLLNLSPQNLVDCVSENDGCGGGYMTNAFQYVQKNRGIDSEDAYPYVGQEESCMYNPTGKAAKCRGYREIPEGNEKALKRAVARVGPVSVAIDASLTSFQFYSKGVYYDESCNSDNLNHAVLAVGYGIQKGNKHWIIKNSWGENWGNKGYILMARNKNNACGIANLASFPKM
Excerpt: as §1, §3, §4, §5
inhibitors and substrates were prepared in DMSO. […]
Cathepsin K Inhibition Assay
Kinetic measurements were performed in duplicate in 96-well microplates (100 µL assay volume) at 25 °C, as described.18-20 Human recombinant cathepsin K was activated by a 1:100 dilution with assay buffer (100 mM sodium citrate, pH 5.0, 100 mM NaCl, 1 mM EDTA, 0.01% CHAPS) containing 5 mM DTT, and then incubated at 37 °C for 30 min. […] After addition of cathepsin K (2 µL), substrate hydrolysis was measured for 20 min fluorometrically in a FLUOSTAR Optima plate reader at excitation and emission wavelengths of 360 and 440 nm, respectively. […]

[5] = biological target: T3, human cathepsin S (Homo sapiens, UniProt P25774); experiment: Cathepsin S inhibition assay; type: biochemical; conditions: duplicate measurements; read-out: Ki cat S
T3 construct: purchased Enzo
Protocol: Cathepsin S Inhibition Assay
Kinetic measurements were performed in duplicate in 96-well microplates (100 µL assay volume) at 25 °C, as described.18-20 Human recombinant cathepsin S was activated by 1:100 dilution with assay buffer (100 mM sodium citrate, pH 6.0 containing 50 mM NaCl, 2 mM EDTA, 0.01% Triton X-100) containing 5 mM DTT, and then incubated at 37 °C for 60 min. Into a well containing 184 µL assay buffer, 0.8 µL of the fluorogenic substrate Cbz-Phe-Arg-AMC, DMSO and inhibitor solution (3.2 µL) were pipetted. After addition of cathepsin S (12 µL), substrate hydrolysis was measured for 20 min fluorometrically on a FLUOSTAR Optima plate reader at excitation and emission wavelengths of 360 and 440 nm, respectively. The final concentrations of Cbz-Phe-Arg-AMC, cathepsin S and DMSO were 40 µM (= 0.74 × Km), 42 ng mL-1 and 2%, respectively. […]

[6] = biological target: T4, cruzain (Trypanosoma cruzi, UniProt P25779); experiment: Cruzain inhibition assay; type: biochemical; conditions: duplicate measurements
T4 construct: Recombinant cruzain, consisting of the catalytic domain without the C-terminal extension; made in house
Excerpt: as §1
Enzymatic Assay Materials […]
Recombinant cruzain, consisting of the catalytic domain without the C-terminal extension, was expressed and purified as described previously.16,17 All substrates were purchased from Bachem. Stock solutions of the inhibitors and substrates were prepared in DMSO. […]
Kinetic measurements were performed in duplicate with a fluorometric assay (Biotek SynergyTM HT) using Corning 96-well black microplates (200 µL assay volume) at 25 °C. Recombinant cruzain was incubated in 100 mM sodium acetate, pH 5.5, 5 mM DTT, 0.01 % Triton X-100 for 20 min, followed by an additional 2 min incubation with inhibitors before the reaction was started by the addition of the fluorogenic substrate Cbz-Phe-Arg-AMC. Substrate hydrolysis was measured for 5 min fluorometrically at excitation and emission wavelengths of 360 and 460 nm, respectively. […]

[7] = biological target: T5, human cathepsin L (Homo sapiens, UniProt P07711); experiment: Cathepsin L inhibition assay; type: biochemical; conditions: duplicate measurements; read-out: Ki cat L
T5 construct: Human isolated cathepsin L; purchased Enzo
Protocol: Cathepsin L Inhibition Assay
Kinetic measurements were performed in duplicate in cuvettes (1 mL assay volume) at 37 °C, as described.18-20 Human isolated cathepsin L was activated by a 1:100 dilution with assay buffer (100 mM sodium phosphate buffer, pH 6.0, 100 mM NaCl, 5 mM EDTA, 0.01% Brij 35) containing 5 mM DTT, and then incubated at 37 °C for 30 min. Into a cuvette containing 940 µL assay buffer, 10 µL of the chromogenic substrate Cbz-Phe-Arg-pNA, DMSO and inhibitor solution (10 µL) were pipetted. After the addition of cathepsin L (40 µL), substrate hydrolysis was measured for 20 min spectrophotometrically in a VARIAN/Bio-50/100 photometer at 405 nm. […]
Arg-AMC, cathepsin S and DMSO were 40 µM (= 0.74 × Km), 42 ng mL-1 and 2%, respectively. […]

[8] = design: method as in doi:10.1135/cccc20011375; conditions: cited from earlier work
[9] = system: SmCB1; experiment: biochemical; conditions: ratio of Ki values
Excerpt: as §1, §2

T4 sequence (P25779 123-337 limits assumed): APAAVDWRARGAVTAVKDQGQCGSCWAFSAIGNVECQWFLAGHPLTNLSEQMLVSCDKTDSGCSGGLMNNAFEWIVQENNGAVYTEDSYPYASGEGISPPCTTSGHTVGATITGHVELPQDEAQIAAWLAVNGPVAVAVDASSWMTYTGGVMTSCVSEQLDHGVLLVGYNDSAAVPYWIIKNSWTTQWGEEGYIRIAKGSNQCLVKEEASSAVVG
T5 sequence (P07711 114-333): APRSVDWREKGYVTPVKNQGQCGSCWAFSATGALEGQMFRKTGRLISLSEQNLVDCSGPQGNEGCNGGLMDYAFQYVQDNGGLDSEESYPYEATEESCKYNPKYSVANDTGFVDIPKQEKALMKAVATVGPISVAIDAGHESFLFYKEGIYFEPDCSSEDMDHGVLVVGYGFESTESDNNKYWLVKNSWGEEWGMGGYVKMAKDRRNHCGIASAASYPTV
T3 sequence (P25774 115-331): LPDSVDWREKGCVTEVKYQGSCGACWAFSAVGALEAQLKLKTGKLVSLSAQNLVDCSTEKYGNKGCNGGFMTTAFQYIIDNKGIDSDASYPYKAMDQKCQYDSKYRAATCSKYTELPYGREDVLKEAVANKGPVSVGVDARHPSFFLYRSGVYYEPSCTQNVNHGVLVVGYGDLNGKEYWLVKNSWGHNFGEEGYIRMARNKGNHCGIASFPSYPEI

Molecule | Ki SmCB1 [1] | Ki Cat B [2] | Ki [2] | Severity score ([3]; 1 μM, 24 h) | Severity score ([3]; 1 μM, 48 h) | Severity score ([3]; 1 μM, 72 h) | Severity score ([3]; 10 μM, 24 h) | Severity score ([3]; 10 μM, 48 h) | Severity score ([3]; 10 μM, 72 h) | anti-schistosomal effect against NTS (in words) [3] | Ki [1] | Ki [4] | Ki [5] | Ki [6] | Ki [7] | dipole moment [8] | Selectivity Ki (cat B)/Ki (SmCB1) [9]
9-SH-closo-1,2-C2B10H11 [compound 2] | inactive | weak inhibition | 43.8 ± 5.6 µM | 0 | 0 | 0 | 0 | 0 | 0 | ineffective | – | – | – | – | – | – | –
CC(C)(C)OC(=O)N[C@@H](Cc1cccc(Cl)c1)C(=O)NC1(C#N)CC1 [compound 4] | – | – | 15.5 ± 1.7 µM | 0 | 0 | 0 | 0 | 0 | 0 | ineffective | 27.1 ± 3.2 µM | 1.85 ± 0.23 µM | 0.096 ± 0.009 µM | 0.75 ± 0.02 µM | 0.25 ± 0.02 µM | – | –
9-phenyl ortho-carborane | – | – | – | – | – | – | – | – | – | – | – | – | – | – | – | 5.0 D | –
N#CC1(NC(=O)[C@H](Cc2cccc(Cl)c2)NC(=O)CSc2ccccc2)CC1 [5a] | – | – | 6.8 ± 0.5 µM | 0 | 0 | 0 | 0 | 0 | 0 | ineffective | 14.3 ± 2.4 µM | 1.41 ± 0.26 µM | 0.21 ± 0.03 µM | 0.46 ± 0.01 µM | 0.37 ± 0.02 µM | – | 0.5
closo-1,2-C2B10H12 [compound 1, reference compound] | inactive | inactive | > 100 µM | 0 | 0 | 0 | 0 | 0 | 0 | ineffective | – | – | – | – | – | 4.5 D | –
